Experimental data from PubChem BioAssay (NCI).
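Growth conditions: 96-well plates. Treatment: test compound, 48 hours, 5 concentrations. Analysis: linear interpolation between bracketing concentrations; unreached endpoints set to highest concentration. TGI denotes the concentration required for complete inhibition of growth.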

Legend:
Assay in all cases: DTP human tumour cell line panel, 48 h
K-562 leukemia = tested on: K-562 leukemia
SF-539 CNS = tested on: SF-539 CNS
SR leukemia = tested on: SR leukemia
DU-145 prostate = tested on: DU-145 prostate
A549 NSCLC = tested on: A549 NSCLC
UO-31 renal = tested on: UO-31 renal
OVCAR-3 ovarian = tested on: OVCAR-3 ovarian
SNB-19 CNS = tested on: SNB-19 CNS
SK-MEL-5 melanoma = tested on: SK-MEL-5 melanoma
HOP-62 NSCLC = tested on: HOP-62 NSCLC
SN12C renal = tested on: SN12C renal
EKVX NSCLC = tested on: EKVX NSCLC
SW-620 colon = tested on: SW-620 colon
HL-60(TB) leukemia = tested on: HL-60(TB) leukemia
LOX IMVI melanoma = tested on: LOX IMVI melanoma
CCRF-CEM leukemia = tested on: CCRF-CEM leukemia
PC-3 prostate = tested on: PC-3 prostate
RPMI-8226 leukemia = tested on: RPMI-8226 leukemia
MOLT-4 leukemia = tested on: MOLT-4 leukemia
A498 renal = tested on: A498 renal
SK-MEL-2 melanoma = tested on: SK-MEL-2 melanoma
HS 578T breast = tested on: HS 578T breast
UACC-257 melanoma = tested on: UACC-257 melanoma
NCI-H23 lung = tested on: NCI-H23 lung
NCI-H460 lung = tested on: NCI-H460 lung
HCT-116 colon = tested on: HCT-116 colon
SF-268 CNS = tested on: SF-268 CNS
ACHN renal = tested on: ACHN renal
SK-MEL-28 melanoma = tested on: SK-MEL-28 melanoma
SF-295 CNS = tested on: SF-295 CNS
OVCAR-5 ovarian = tested on: OVCAR-5 ovarian
KM12 colon = tested on: KM12 colon
SNB-75 CNS = tested on: SNB-75 CNS
HCC-2998 colon = tested on: HCC-2998 colon
CAKI-1 renal = tested on: CAKI-1 renal
HT29 colon = tested on: HT29 colon
COLO 205 colon = tested on: COLO 205 colon
786-0 renal = tested on: 786-0 renal
MDA-MB-435 = tested on: MDA-MB-435
NCI/ADR-RES ovarian = tested on: NCI/ADR-RES ovarian
U251 CNS = tested on: U251 CNS
BT-549 breast = tested on: BT-549 breast
MDA-MB-231 breast = tested on: MDA-MB-231 breast
NCI-H522 lung = tested on: NCI-H522 lung
M14 melanoma = tested on: M14 melanoma
RXF 393 renal = tested on: RXF 393 renal
MDA-N = tested on: MDA-N
MALME-3M melanoma = tested on: MALME-3M melanoma
IGROV1 ovarian = tested on: IGROV1 ovarian
HOP-92 NSCLC = tested on: HOP-92 NSCLC
MCF7 breast = tested on: MCF7 breast
OVCAR-8 ovarian = tested on: OVCAR-8 ovarian
TK-10 renal = tested on: TK-10 renal
OVCAR-4 ovarian = tested on: OVCAR-4 ovarian
HCT-15 colon = tested on: HCT-15 colon
NCI-H226 lung = tested on: NCI-H226 lung
UACC-62 melanoma = tested on: UACC-62 melanoma
SK-OV-3 ovarian = tested on: SK-OV-3 ovarian
T-47D breast = tested on: T-47D breast

Measured: TGI

CN(C)CCNC(=O)c1cc(NC(=O)c2cc(NC(=O)CC/C=C3/[C@@H]4CC[C@H]3N=N4)cn2C)cn1C
not listed: UACC-62 melanoma | SK-OV-3 ovarian | T-47D breast
> 100 µM: all other assays above

C/C(=N/NC(=S)N1CCN(C(=S)N/N=C(/C)c2ccccn2)CC1)c1ccccn1
> 80.7 µM: SK-MEL-5 melanoma
> 81.9 µM: NCI-H23 lung
> 76.7 µM: UO-31 renal
41.4 µM: RXF 393 renal
42.5 µM: T-47D breast
> 58.6 µM: A498 renal
> 67.9 µM: HOP-62 NSCLC
57 µM: SF-268 CNS
> 45.8 µM: NCI/ADR-RES ovarian
> 83.8 µM: HS 578T breast
38.5 µM: M14 melanoma
> 77.6 µM: SNB-75 CNS
> 95.5 µM: DU-145 prostate
> 74.5 µM: NCI-H226 lung
1.98 µM: HL-60(TB) leukemia
99.2 µM: NCI-H522 lung
> 44.1 µM: ACHN renal
not listed: SR leukemia
> 100 µM: all other assays above

[N-]=[N+]=CC(=O)COC(=O)c1ccccc1
not listed: HS 578T breast
> 100 µM: all other assays above

COc1cc2c(c(OC)c1)C(=O)O[C@H](C)CCCC/C=C/C2
22.9 µM: SW-620 colon
> 58 µM: UACC-62 melanoma
38.2 µM: HCT-116 colon
27.1 µM: DU-145 prostate
> 71.8 µM: HT29 colon
13.6 µM: SN12C renal
29.6 µM: EKVX NSCLC
31.3 µM: MALME-3M melanoma
> 32.5 µM: SNB-19 CNS
> 95.8 µM: NCI-H226 lung
26.4 µM: CAKI-1 renal | MDA-N
> 30.8 µM: UO-31 renal
31.1 µM: SK-MEL-2 melanoma
25.7 µM: HOP-92 NSCLC
23 µM: LOX IMVI melanoma
4.45 µM: HL-60(TB) leukemia
> 35.2 µM: KM12 colon
> 31.1 µM: IGROV1 ovarian
> 30.6 µM: ACHN renal
> 32.7 µM: OVCAR-5 ovarian
> 31.6 µM: T-47D breast
11.2 µM: SK-MEL-5 melanoma
> 31.9 µM: MOLT-4 leukemia | MDA-MB-231 breast
> 77.2 µM: NCI/ADR-RES ovarian
25.6 µM: RPMI-8226 leukemia
28 µM: OVCAR-3 ovarian
> 35.1 µM: BT-549 breast
12.9 µM: MDA-MB-435
> 31.4 µM: OVCAR-4 ovarian
24 µM: NCI-H522 lung
> 32.8 µM: SNB-75 CNS
24.7 µM: HOP-62 NSCLC
> 33.8 µM: TK-10 renal
> 66.9 µM: HCT-15 colon
30.5 µM: U251 CNS
27.5 µM: 786-0 renal
> 32.9 µM: HCC-2998 colon
25.9 µM: SF-539 CNS
> 33.9 µM: UACC-257 melanoma
> 34.1 µM: SK-MEL-28 melanoma
31.8 µM: COLO 205 colon
> 32.6 µM: NCI-H460 lung | MCF7 breast
> 32.2 µM: SF-295 CNS | M14 melanoma
25.2 µM: RXF 393 renal
not listed: PC-3 prostate | SF-268 CNS
> 100 µM: all other assays above

CC(=O)NC(=O)NC1=NCCC(=O)N1CCc1c[nH]c2ccccc12
not listed: SR leukemia | SNB-75 CNS | BT-549 breast
> 100 µM: all other assays above

Cn1ccc2c(c1=O)C(=O)OC2(C)C
not listed: SK-MEL-2 melanoma | MDA-MB-435 | NCI-H522 lung | HOP-92 NSCLC
> 100 µM: all other assays above

COC(=O)/C=c1/c2ccccc2n2c1c1ccccc1[n+]2C
15.9 µM: OVCAR-4 ovarian
11.6 µM: SK-MEL-2 melanoma
36.3 µM: DU-145 prostate
21 µM: NCI-H226 lung
27.5 µM: UACC-62 melanoma
20.9 µM: IGROV1 ovarian
6.93 µM: SK-OV-3 ovarian
5.75 µM: HCC-2998 colon
19.9 µM: SK-MEL-28 melanoma
15.5 µM: M14 melanoma
14.7 µM: ACHN renal | BT-549 breast
51.1 µM: CCRF-CEM leukemia
8.12 µM: SK-MEL-5 melanoma
5.63 µM: SF-295 CNS
9.79 µM: PC-3 prostate
18.8 µM: MDA-MB-435
70.9 µM: CAKI-1 renal
26.5 µM: MCF7 breast
10.1 µM: HCT-116 colon
2.51 µM: COLO 205 colon
11.4 µM: NCI-H23 lung
12.5 µM: NCI-H460 lung
11.1 µM: MDA-N
19.4 µM: U251 CNS
9.67 µM: RPMI-8226 leukemia
14.9 µM: 786-0 renal
8.08 µM: UACC-257 melanoma
9.93 µM: TK-10 renal
9.47 µM: KM12 colon
33.1 µM: HCT-15 colon
26 µM: MDA-MB-231 breast
22.8 µM: SF-268 CNS
15.3 µM: HOP-62 NSCLC
27.9 µM: LOX IMVI melanoma
24.1 µM: A549 NSCLC
17.4 µM: RXF 393 renal
12.3 µM: SW-620 colon
14 µM: SF-539 CNS
20.4 µM: UO-31 renal
16.4 µM: SN12C renal
6.74 µM: MALME-3M melanoma
8.44 µM: HL-60(TB) leukemia | SNB-75 CNS
15.7 µM: OVCAR-8 ovarian
21.9 µM: OVCAR-3 ovarian
7.79 µM: EKVX NSCLC
12.8 µM: HT29 colon
17.6 µM: OVCAR-5 ovarian
14.6 µM: A498 renal
not listed: SR leukemia | NCI-H522 lung | HOP-92 NSCLC
> 100 µM: all other assays above
